Among the data in US20220041583A1, “IMMUNOMODULATORS, COMPOSITIONS AND METHODS THERE OF” (BETTA PHARMACEUTICALS CO., LTD, priority 2018, published 2022) are IC50 values, retold here.

The IC50 is the concentration that gives 50% inhibition. A lower IC50 goes with inhibition by little substance.

SMILES strings stand for the structures.

The target of one assay is T1, PD-1/PD-L1 (Homo sapiens, UniProt Q9NZQ7).
T1 construct: Recombinant human PD-L1 protein (19-238) with a His-tag at the C-terminus; purchased AcroBiosystems PD1-H5229 (PD-L1); PD1-H5257 (PD-1)
T1 sequence (Q9NZQ7 19-238): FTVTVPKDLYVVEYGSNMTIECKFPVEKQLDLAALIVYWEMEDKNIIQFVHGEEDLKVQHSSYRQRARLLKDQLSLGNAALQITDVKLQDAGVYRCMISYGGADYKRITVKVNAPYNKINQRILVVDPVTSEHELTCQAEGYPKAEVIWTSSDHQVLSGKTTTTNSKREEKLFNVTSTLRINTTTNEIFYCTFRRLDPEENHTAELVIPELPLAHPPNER
Nature of the assay: PD-1/PD-L1 homogenous time-resolved fluorescence (HTRF) binding assay. Particulars: Table 6, class symbols. As to the method: Resolved Fluorescence (HTRF) Binding Assay
The assays were conducted in a standard black 384-well polystyrene plate with a final volume of 20 μL. Inhibitors were first serially diluted in DMSO and then added to the plate wells before the addition of other reaction components. The final concentration of DMSO in the assay was 1%. The assays were carried out at 25° C. in the PBS buffer (pH 7.4) with 0.05% Tween-20 and 0.1% BSA. Recombinant human PD-L1 protein (19-238) with a His-tag at the C-terminus was purchased from AcroBiosy stems (PD1-H5229). Recombinant human PD-1 protein (25-167) with Fc tag at the C-terminus was also purchased from AcroBiosystems (PD1-H5257). PD-L1 and PD-1 proteins were diluted in the assay buffer and 10 μL was added to the plate well. Plates were centrifuged and proteins were preincubated with inhibitors for 40 min. The incubation was followed by the addition of 10 μL of HTRF detection buffer supplemented with Europium cryptate-labeled anti-human IgG (PerkinElmer-AD0212) specific for Fc and anti-His antibody conjugated to SureLight®-Allophycocyanin (APC, PerkinElmer-AD0059H). After centrifugation, the plate was incubated at 25° C. for 60 min. Before reading on a PHERAstar FS plate reader (665 nm/620 nm ratio). Final concentrations in the assay were […] PD1, 10 nM PD-L1, 1 nM europium anti-human IgG and 20 nM anti-His-Allophycocyanin. IC50 determination was performed by fitting the curve of percent control activity versus the log of the inhibitor concentration using the GraphPad Prism 5.0 software.
Background: Time-resolved FRET reads energy transfer from a long-lived donor to a nearby acceptor.
Compound `CSc1cc2oc(-c3cccc(-c4ccccc4)c3C#N)nc2cc1CN1CCC[C@H]1C(=O)O` [Example 14, ((2-(2-cyano-[1,1′-biphenyl]-3-yl)-6-(methylthio)benzo[d]oxazol-5-yl)methyl)-L-proline] displayed an IC50 of 0.1 to 10 nM. Still for that read-out and setting: the figure for `Cc1cc2oc(-c3cccc(-c4ccccc4)c3C#N)nc2cc1CN1CCC[C@@H]1C(=O)O` [Example 17, ((2-(2-cyano-[1,1′-biphenyl]-3-yl)-6-methylbenzo[d]oxazol-5-yl)methyl)-D-proline] is 0.1 to 10 nM; for `Cc1c(-c2ccccc2)cccc1-c1nc2cc(CN3CCCC3(C)C(=O)O)c(OCC(F)(F)F)cc2o1` (stereo not drawn) [Example 61, 2-methyl-1-((2-(2-methyl-[1,1′-biphenyl]-3-yl)-6-(2,2,2-trifluoroethoxy)benzo[d]oxazol-5-yl)methyl)pyrrolidine-2-carboxylic acid] it is 10 to 100 nM.

`CSc1cc2oc(-c3cccc(-c4ccccc4)c3C)nc2cc1CN[C@H](C)C(=O)O` [Example 6, ((2-(2-methyl-[1,1′-biphenyl]-3-yl)-6-(methylthio)benzo[d]oxazol-5-yl)methyl)-D-alanine] yielded a concentration for half-maximal inhibition (IC50) of 10 to 100 nM. Same read-out and setting: the figure for `Cc1c(-c2ccc3c(c2)OCCO3)cccc1-c1nc2cc(CN3CCC[C@H]3C(=O)O)c(OC(F)F)cc2o1` [Example 47, ((6-(difluoromethoxy)-2-(3-(2,3-dihydrobenzo[b][1,4]dioxin-6-yl)-2-methylphenyl)benzo[d]oxazol-5-yl)methyl)-L-proline] is 0.1 to 10 nM.

Turning to `N#Cc1c(-c2ccccc2)cccc1-c1nc2cc(CN3CCC[C@H]3C(=O)O)c(OC(F)F)cc2o1` [Example 44, ((2-(2-cyano-[1,1′-biphenyl]-3-yl)-6-(difluoromethoxy)benzo[d]oxazol-5-yl)methyl)-L-proline], the half-maximal inhibitory concentration (IC50) is 0.1 to 10 nM. Still for that read-out and setting: next, `CNc1cc2oc(-c3cccc(-c4ccccc4)c3C)nc2cc1CN1CCCCC1C(=O)O` (stereo not drawn) [Example 27, 1-((2-(2-methyl-[1,1′-biphenyl]-3-yl)-6-(methylamino)benzo[d]oxazol-5-yl)methyl)piperidine-2-carboxylic acid]: 0.1 to 10 nM. Same read-out and setting: the figure for `Cc1cc2oc(-c3cccc(-c4ccccc4)c3C#N)nc2cc1CN1CCOC[C@H]1C(=O)O` [Example 19, (S)-4-((2-(2-cyano-[1,1′-biphenyl]-3-yl)-6-methylbenzo[d]oxazol-5-yl)methyl)morpholine-3-carboxylic acid] is 0.1 to 10 nM; for `CSc1cc2oc(-c3cccc(-c4ccccc4)c3C)nc2cc1CN1CCCCC1CO` (stereo not drawn) [Example 8, (1-((2-(2-methyl-[1,1′-biphenyl]-3-yl)-6-(methylthio)benzo[d]oxazol-5-yl)methyl)piperidin-2-yl)methanol] it is 10 to 100 nM; for `Cc1c(-c2ccccc2)cccc1-c1nc2cc(CN3COC[C@H]3C(=O)O)c(OC(F)F)cc2o1` [Example 53, (S)-3-((6-(difluoromethoxy)-2-(2-methyl-[1,1′-biphenyl]-3-yl)benzo[d]oxazol-5-yl)methyl)oxazolidine-4-carboxylic acid] it is 10 to 100 nM. Same read-out and setting: the figure for `Cc1c(-c2ccccc2)cccc1-c1nc2cc(CN3CCCCC3C(=O)O)c(C#N)cc2o1` (stereo not drawn) [Example 26, 1-((6-cyano-2-(2-methyl-[1,1′-biphenyl]-3-yl)benzo[d]oxazol-5-yl)methyl)piperidine-2-carboxylic acid] is 0.1 to 10 nM. In the case of `Cc1c(-c2ccccc2)cccc1-c1nc2cc(CN3CCCCC3CO)c(OC(F)F)cc2o1` (stereo not drawn) [Example 38, (1-((6-(difluoromethoxy)-2-(2-methyl-[1,1′-biphenyl]-3-yl)benzo[d]oxazol-5-yl)methyl)piperidin-2-yl)methanol], the IC50 was 0.1 to 10 nM.

With `CSc1cc2oc(-c3cccc(-c4ccccc4)c3C)nc2cc1CN[C@H](C(=O)O)[C@H](C)O` [Example 4, ((2-(2-methyl-[1,1′-biphenyl]-3-yl)-6-(methylthio)benzo[d]oxazol-5-yl)methyl)-L-allothreonine], the half-maximal inhibitory concentration (IC50) lay in the range of 0.1 to 10 nM. On the same count and under the same terms, next, `Cc1c(-c2ccccc2)cccc1-c1nc2cc3c(cc2o1)OCCN(C)C3` [Example 67, 8-methyl-2-(2-methyl-[1,1′-biphenyl]-3-yl)-6,7,8,9-tetrahydrooxazolo[5′,4′:4,5]benzo[1,2-f][1,4]oxazepine]: 100 to 1000 nM; `Cc1c(-c2ccccc2)cccc1-c1nc2cc(CN3CCOC[C@H]3C(=O)O)c(OCC(F)(F)F)cc2o1` [Example 58, (S)-4-((2-(2-methyl-[1,1′-biphenyl]-3-yl)-6-(2,2,2-trifluoroethoxy)benzo[d]oxazol-5-yl)methyl)morpholine-3-carboxylic acid]: 10 to 100 nM; `Cc1c(-c2ccccc2)cccc1-c1nc2cc(CN3CC[C@H](O)C3)c(F)cc2o1` [Example 23, (S)-1-((6-fluoro-2-(2-methyl-[1,1′-biphenyl]-3-yl)benzo[d]oxazol-5-yl)methyl)pyrrolidin-3-ol]: 10 to 100 nM. The same measure, in the same setting: the figure for `Cc1c(-c2ccccc2)cccc1-c1nc2cc(CN3CCC[C@H]3C(=O)O)c(OC(F)(F)F)cc2o1` [Example 63, ((2-(2-methyl-[1,1′-biphenyl]-3-yl)-6-(trifluoromethoxy)benzo[d]oxazol-5-yl)methyl)-L-proline] is 0.1 to 10 nM; for `CSc1cc2oc(-c3cccc(-c4ccccc4)c3C)nc2cc1CN[C@@H](CO)C(=O)O` [Example 13, ((2-(2-methyl-[1,1′-biphenyl]-3-yl)-6-(methylthio)benzo[d]oxazol-5-yl)methyl)-L-serine] it is 0.1 to 10 nM; for `CSc1cc2oc(-c3cccc(-c4ccccc4)c3C)nc2cc1CN[C@H](CO)C(=O)O` [Example 12, ((2-(2-methyl-[1,1′-biphenyl]-3-yl)-6-(methylthio)benzo[d]oxazol-5-yl)methyl)-D-serine] it is 0.1 to 10 nM. The same measure, in the same setting: the figure for `Cc1c(-c2ccccc2)cccc1-c1nc2cc(CN[C@H](C)C(=O)O)c(OCC(F)(F)F)cc2o1` [Example 56, ((2-(2-methyl-[1,1′-biphenyl]-3-yl)-6-(2,2,2-trifluoroethoxy)benzo[d]oxazol-5-yl)methyl)-D-alanine] is 10 to 100 nM; for `Cc1c(-c2ccccc2)cccc1-c1nc2cc3c(cc2o1)OCCN(CC(=O)O)C3` [Example 71, 2-(2-(2-methyl-[1,1′-biphenyl]-3-yl)-6,7-dihydrooxazolo[5′,4′:4,5]benzo[1,2-f][1,4]oxazepin-8(9H)-yl)acetic acid] it is 100 to 1000 nM; for `Cc1c(-c2ccccc2)cccc1-c1nc2cc3c(cc2o1)OC[C@H](C(=O)O)NC3` [Example 72, (R)-2-(2-methyl-[1,1′-biphenyl]-3-yl)-6,7,8,9-tetrahydrooxazolo[5′,4′:4,5]benzo[1,2-f][1,4]oxazepine-7-carboxylic acid] it is 100 to 1000 nM. The compound `N#Cc1ccccc1-c1cccc(-c2nc3cc(CN4CCC[C@H]4C(=O)O)c(OC(F)F)cc3o2)c1C#N` [Example 45, ((2-(2,2′-dicyano-[1,1′-biphenyl]-3-yl)-6-(difluoromethoxy)benzo[d]oxazol-5-yl)methyl)-L-proline] yielded an IC50 of 10 to 100 nM. The same measure, in the same setting: the figure for `Cc1c(-c2ccccc2)cccc1-c1nc2cc(CN3CCCC[C@H]3C(=O)O)c(OCC(F)(F)F)cc2o1` [Example 54, (S)-1-((2-(2-methyl-[1,1′-biphenyl]-3-yl)-6-(2,2,2-trifluoroethoxy)benzo[d]oxazol-5-yl)methyl)piperidine-2-carboxylic acid] is 10 to 100 nM. `Cc1c(-c2ccccc2)cccc1-c1nc2cc(CN[C@@H](C)C(=O)O)c(OCC(F)(F)F)cc2o1` [Example 59, ((2-(2-methyl-[1,1′-biphenyl]-3-yl)-6-(2,2,2-trifluoroethoxy)benzo[d]oxazol-5-yl)methyl)-L-alanine] had a half-inhibitory concentration (IC50) of 10 to 100 nM. For `Cc1cc2oc(-c3cccc(-c4ccccc4)c3C#N)nc2cc1CN1CCC[C@H]1C(=O)O` [Example 18, ((2-(2-cyano-[1,1′-biphenyl]-3-yl)-6-methylbenzo[d]oxazol-5-yl)methyl)-L-proline], the IC50 was in the range of 0.1 to 10 nM. `Cc1c(-c2ccccc2)cccc1-c1nc2cc(CN3CCCCC3C(=O)O)c3c(c2o1)C(=O)CO3` (stereo not drawn) [Example 73, 1-((2-(2-methyl-[1,1′-biphenyl]-3-yl)-8-oxo-7,8-dihydrobenzofuro[5,4-d]oxazol-5-yl)methyl)piperidine-2-carboxylic acid] returned a half-maximal inhibitory concentration (IC50) of 100 to 1000 nM.

Still in this assay, the particulars now being: Table 6, numeric values.
In turn, `Cc1c(-c2ccccc2)cccc1-c1nc2cc(CN[C@H](CO)C(=O)O)c(OC(F)F)cc2o1` [Example 42, ((6-(difluoromethoxy)-2-(2-methyl-[1,1′-biphenyl]-3-yl)benzo[d]oxazol-5-yl)methyl)-D-serine] gave an IC50 of 3.4 nM.

`CSc1cc2oc(-c3cccc(-c4ccccc4)c3C)nc2cc1CN1CCCC[C@H]1C(=O)O` [Example 1, (S)-1-((2-(2-methyl-[1,1′-biphenyl]-3-yl)-6-(methylthio)benzo[d]oxazol-5-yl)methyl)piperidine-2-carboxylic acid] had a concentration for half-maximal inhibition (IC50) of 1.9 nM. The same measure, in the same setting: next, `Cc1c(-c2ccccc2)cccc1-c1nc2cc(CN3CCC[C@H]3C(=O)O)c([S+](C)[O-])cc2o1` (stereo partly drawn) [Example 65, ((2-(2-methyl-[1,1′-biphenyl]-3-yl)-6-(methylsulfinyl)benzo[d]oxazol-5-yl)methyl)-L-proline]: 5 nM.
